Measured values: US5484911A, “Nucleoside 5'-diphosphate conjugates of ether lipids” (Health Research, Inc., priority 1993, dated 1996)
Read-outs that look alike come from different tables or passages of the source.

Key:
HIV-infected U937 = conditions: liposomal, range over the compounds named, read-out: IC50, antiretroviral activity; cited from earlier work
HIV-infected CEM cells = conditions: liposomal, range over the compounds named, read-out: IC50, antiretroviral activity; cited from earlier work
HIV-1 [1] = conditions: cited from earlier work
HIV-1 [2] = assay: microbe, parasite or virus in culture; format: cell-based; conditions: for Conclusion: NCI screen conclusion, Tables 1-4; for conclusion / reported as anti-HIV drug: NCI screening results
Text: (§1) FIG. 3. Anti-HIV activity of AZTDP-DL-PTBA from the National Cancer Institute Developmental Therapeutics Program In-Vitro Testing Results; NSC 648540-S/1; Plate 5440; Lab 9N; SSPL:129N; Primary Screen Assay; Test Date, Jan. 21, 1992; Solubility Ind.: 1; Report Date, Apr. 27, 1992; Cell Line, CEM-IW; Solvent: Saline<0.9% (MEDIA).
as §1, with “4.” for “3.”, “AZddUDP-DL-PTBA” for “AZTDP-DL-PTBA”, “NSC: 648541-T/1;” for “NSC 648540-S/1;”, “5466;” for “5440;”, “SSPL: 129N;” for “SSPL:129N;”, “Line:” for “Line,”
(§2) FIG. 5. Anti-HIV activity of ddCDP-DL-PTBA from the National Cancer Institute Developmental Therapeutic Program In-Vitro Testing Results; NSC: D- 652872-A/1; Plate 24; Lab 9N; Primary Screen Assay; Test Date, Jul. 23, 1992; Solubility Ind.: 1; Report Date: Aug. 7, 1992; Cell Line: CEM-IW; Solvent: Saline<0.9% (MEDIA).
(§3) FIG. 6. Anti-HIV activity of AZTDP-DL-PMA from the National Cancer Institute Developmental Therapeutics Program In-Vitro Testing Results; NSC: D- 652873-C/1; Plate 24; Lab 9N; SSPL: 129N; Primary Screen Assay; Test Date, Jul. 23, 1992; Solubility Ind.: 1; Report Date, Sep. 11, 1992; Cell Line: CEM-IW; Solvent: Saline<0.9% (MEDIA).
Anti-HIV evaluation for the compounds was performed at the National Cancer Institute, National Institute of Health and is presented in FIGS. 3-6.
(§4) The procedure is designed to detect agents acting at any stage of the virus reproductive cycle (Weislow, et al., J. Natl. Cancer Inst. 81, 577, 1989). The assay basically involves the killing of T4 lymphocytes by HIV. Small amounts of HIV are added to cells, and a complete cycle of virus reproduction is necessary to obtain the required cell killing. Agents that interact with virions, cells, or virus gene-products to interfere with viral activities will protect cells from cytolysis. Compounds that degenerate or are rapidly metabolized in the culture conditions may not show activity in this screen. All tests are compared with at least one positive (e.g., AZT-treated) control done at the same time under identical conditions.
(§5) Compound was dissolved in DMSO then diluted 1:100 in cell culture medium before preparing serial half-log10 dilutions. T4 lymphocytes (CEM cell line) were added and after a brief interval HIV-1 was added, resulting in a 1:200 final dilution of the compound. Uninfected cells with the compound served as a toxicity control, and infected and uninfected without the compound served as basic controls. Cultures were incubated at 37° C. in a 5% CO2 atmosphere for 6 days. The tetrazolium salt, XTT, was added to the wells, and cultures were incubated to allow formazan color development by viable cells. Individual wells were analyzed spectrophotometrically to quantitate formazan production, and in addition were viewed microscopically for detection of viable cells and confirmation of protective activity. Drug-treated virus-infected cells were compared with drug-treated noninfected cells and with other appropriate controls (untreated infected and untreated noninfected cells, drug-containing wells without cells, etc.) on the same plate. Data were reviewed in comparison with other tests done at the same time and a determination about activity was made.

[3] = Cytotoxicity to uninfected CEM cells (toxicity control of the anti-HIV assay); format: cell-based; conditions: human; for CC50: CEM cells, read-out: cytotoxicity (IC50); for CC50 at 144 h: uninfected CEM-IW cells, 6 days, XTT, Tables 1-4, read-out: 1C50(Molar) (cytotoxicity)
Text: as §1
as §1, with “4.” for “3.”, “AZddUDP-DL-PTBA” for “AZTDP-DL-PTBA”, “NSC: 648541-T/1;” for “NSC 648540-S/1;”, “5466;” for “5440;”, “SSPL: 129N;” for “SSPL:129N;”, “Line:” for “Line,”
as §2, §3, §4, §5

in vivo = assay: in vivo; design: species or system Female NIH-Swiss mice; conditions: mouse, ip, 100 mg/kg
Protocol: FIG. 7. Mouse serum concentration of AZT following administration of AZT or AZTDP-DL-PTBA Female NIH-Swiss mice weighing 25-30 g were administered i.p. with AZT (100 mg/kg) or AZTDP-DL-PTBA (394 mg/kg, equivalent to 100 mg/kg AZT). Three mice were sacrificed at the designated time (up to 24 hr) and AZT in the serum was analyzed by a HPLC method.
Female NIH-Swiss mice weighing 25-30 g were administered intraperitoneally (i.p.) with 394 mg/kg of AZTDP-DL-PTBA (equivalent to 100 mg/kg AZT). Three mice were sacrificed at the designated time (up to 24 hours) and AZT in the serum was analyzed by an HPLC method. […] The intact conjugate level in the serum was unable to be checked by the HPLC method.

[4] = Human immunodeficiency virus 1, CCRF-CEM, 144 h, read-out: EC50(Molar)
[5] = Human immunodeficiency virus 1, CCRF-CEM, read-out: 50% of the protection (EC50)

CCCCCCCCCCCCCC(=O)OCC(COP(=O)(O)OC[C@@H]1CC[C@H](n2cc(C)c(=O)[nH]c2=O)O1)OC(=O)CCCCCCCCCCCCC (stereo partly shown) [dimyristoylphosphatidylddT]
IC50 (HIV-infected U937): 0.2 to 12 µM | IC50 (HIV-infected CEM cells): 1.7 to 22 µM

COCCCCCCCCCCCC(=O)O [13-Oxamyristic acid, 12-methoxydodecanoic acid]
effectiveness among myristate analogs (HIV-1 [1]): the most effective | reverse transcriptase activity, p24 levels, and syncytia formation (HIV-1 [1]): concentration-dependent decrease in reverse transcriptase activity, p24 levels, and syncytia formation

CCCCCCCCCCCCCCCCCCSCC(COP(=O)(O)OP(=O)(O)OC[C@H]1O[C@@H](n2ccc(=O)[nH]c2=O)C[C@@H]1N=[N+]=[N-])OC(=O)CCCCCCCCCCCCCCC (mixture of isomers) [AZddUDP-DL-PTBA, 3'-Azido-2',3'-dideoxyuridine-5'-diphosphate-rac-1-S-octadecyl-2-O-palmitoyl-1-thioglycerol]
EC50 (HIV-1 [2]; [4]): 59 µM | EC50 (HIV-1 [2]; [5]): 59 µM | viability at 180 µM (HIV-1 [2]; Human immunodeficiency virus 1, CCRF-CEM, dose 1.80 × 10^-4 Molar (Tables 1, 2), read-out: INFECTED RESPONSE Percent of Control): 103% | viability at 18 µM (HIV-1 [2]; Human immunodeficiency virus 1, CCRF-CEM, dose 1.80 × 10^-5 Molar (Tables 1, 2), read-out: INFECTED RESPONSE Percent of Control): 11.1% | viability at 1.8 µM (HIV-1 [2]; Human immunodeficiency virus 1, CCRF-CEM, dose 1.80 × 10^-6 Molar (Tables 1, 2), read-out: INFECTED RESPONSE Percent of Control): 4.68% | viability at 580 µM (HIV-1 [2]; Human immunodeficiency virus 1, CCRF-CEM, dose 5.80 × 10^-4 Molar (Tables 1, 2), read-out: INFECTED RESPONSE Percent of Control): 7.96% | viability at 58 µM (HIV-1 [2]; Human immunodeficiency virus 1, CCRF-CEM, dose 5.80 × 10^-5 Molar (Tables 1, 2), read-out: INFECTED RESPONSE Percent of Control): 50.6% | viability at 5.8 µM (HIV-1 [2]; Human immunodeficiency virus 1, CCRF-CEM, dose 5.80 × 10^-6 Molar (Tables 1, 2), read-out: INFECTED RESPONSE Percent of Control): 6.2% | viability at 0.58 µM (HIV-1 [2]; Human immunodeficiency virus 1, CCRF-CEM, dose 5.80 × 10^-7 Molar (Tables 1, 2), read-out: INFECTED RESPONSE Percent of Control): 2.69% | Conclusion (HIV-1 [2]): CONFIRMED ACTIVE | conclusion / reported as anti-HIV drug (HIV-1 [2]): moderate | viability at 180 µM ([3]; uninfected cem cells, dose 1.80 × 10^-4 Molar (Tables 1, 2), read-out: UNINFECTED RESPONSE Percent of Control): 138% | viability at 18 µM ([3]; uninfected cem cells, dose 1.80 × 10^-5 Molar (Tables 1, 2), read-out: UNINFECTED RESPONSE Percent of Control): 98.6% | viability at 1.8 µM ([3]; uninfected cem cells, dose 1.80 × 10^-6 Molar (Tables 1, 2), read-out: UNINFECTED RESPONSE Percent of Control): 96.6% | viability at 580 µM ([3]; uninfected cem cells, dose 5.80 × 10^-4 Molar (Tables 1, 2), read-out: UNINFECTED RESPONSE Percent of Control): 5.01% | viability at 58 µM ([3]; uninfected cem cells, dose 5.80 × 10^-5 Molar (Tables 1, 2), read-out: UNINFECTED RESPONSE Percent of Control): 107% | viability at 5.8 µM ([3]; uninfected cem cells, dose 5.80 × 10^-6 Molar (Tables 1, 2), read-out: UNINFECTED RESPONSE Percent of Control): 94.6% | viability at 0.58 µM ([3]; uninfected cem cells, dose 5.80 × 10^-7 Molar (Tables 1, 2), read-out: UNINFECTED RESPONSE Percent of Control): 94.6% | CC50 [3]: 390 µM | CC50 at 144 h [3]: 590 µM

CCCCCCCCCCCCCC(=O)OCC(COP(=O)(O)OC[C@H]1O[C@@H](n2cc(C)c(=O)[nH]c2=O)C[C@@H]1N=[N+]=[N-])OC(=O)CCCCCCCCCCCCC (stereo partly shown) [Dimyristoyl-phosphatidylAZT]
IC50 (HIV-infected U937): 0.2 to 12 µM | IC50 (HIV-infected CEM cells): 1.7 to 22 µM

AZT dipalmitoylglycerol
IC50 (HIV-infected U937): 0.2 to 12 µM | IC50 (HIV-infected CEM cells): 1.7 to 22 µM

CCCCCCCCCCCCCC(=O)OCC(COP(=O)(O)OC[C@@H]1CC[C@H](n2ccc(N)nc2=O)O1)OC(=O)CCCCCCCCCCCCC (stereo partly shown) [dimyristoylphosphatidylddC]
IC50 (HIV-infected U937): 0.2 to 12 µM | IC50 (HIV-infected CEM cells): 1.7 to 22 µM

Cc1cn([C@H]2C[C@H](N=[N+]=[N-])[C@@H](CO)O2)c(=O)[nH]c1=O [AZT, 3'-azido-3'-deoxythymidine, reference compound]
half-life (in vivo): 18.6 min

CCCCCCCCCCCCCCCC(=O)OC(COCCCCCCCCCCCCCC)COP(=O)(O)OP(=O)(O)OC[C@H]1O[C@@H](n2cc(C)c(=O)[nH]c2=O)C[C@@H]1N=[N+]=[N-] (mixture of isomers) [AZTDP-DL-PMA, 3'-Azido-3'-deoxythymidine-5'-diphosphate-rac-1-O-tetradecyl-2-O-palmitoylglycerol]
EC50 (HIV-1 [2]; [5]): 57 µM | viability at 180 µM (HIV-1 [2]; Human immunodeficiency virus 1, CCRF-CEM, dose 1.80 × 10^-4 Molar (Table 4), read-out: INFECTED RESPONSE Percent of Control): 66.8% | viability at 570 µM (HIV-1 [2]; Human immunodeficiency virus 1, CCRF-CEM, dose 5.70 × 10^-4 Molar (Table 4), read-out: INFECTED RESPONSE Percent of Control): 90.7% | viability at 57 µM (HIV-1 [2]; Human immunodeficiency virus 1, CCRF-CEM, dose 5.70 × 10^-5 Molar (Table 4), read-out: INFECTED RESPONSE Percent of Control): 55.8% | Conclusion (HIV-1 [2]): CONFIRMED ACTIVE | conclusion / reported as anti-HIV drug (HIV-1 [2]): moderate | viability at 180 µM ([3]; uninfected cem cells, dose 1.80 × 10^-4 Molar (Table 4), read-out: UNINFECTED RESPONSE Percent of Control): 109% | viability at 570 µM ([3]; uninfected cem cells, dose 5.70 × 10^-4 Molar (Table 4), read-out: UNINFECTED RESPONSE Percent of Control): 109% | viability at 57 µM ([3]; uninfected cem cells, dose 5.70 × 10^-5 Molar (Table 4), read-out: UNINFECTED RESPONSE Percent of Control): 114% | CC50 [3]: 14000 µM | CC50 at 144 h [3]: 14000 µM

CCCCCCCCCCCCCCCCCCSCC(COP(=O)(O)OP(=O)(O)OC[C@@H]1CC[C@H](n2ccc(N)nc2=O)O1)OC(=O)CCCCCCCCCCCCCCC (mixture of isomers) [ddCDP-DL-PTBA, 2',3'-Dideoxycytidine-5'-diphosphate-rac-1-S-octadecyl-2-O-palmitoyl-1-thioglycerol]
EC50 (HIV-1 [2]; [4]): 130 µM | EC50 (HIV-1 [2]; [5]): 130 µM | viability at 200 µM (HIV-1 [2]; Human immunodeficiency virus 1, CCRF-CEM, dose 2.00 × 10^-4 Molar (Table 3), read-out: INFECTED RESPONSE Percent of Control): 78% | viability at 630 µM (HIV-1 [2]; Human immunodeficiency virus 1, CCRF-CEM, dose 6.30 × 10^-4 Molar (Table 3), read-out: INFECTED RESPONSE Percent of Control): 98.7% | viability at 63 µM (HIV-1 [2]; Human immunodeficiency virus 1, CCRF-CEM, dose 6.30 × 10^-5 Molar (Table 3), read-out: INFECTED RESPONSE Percent of Control): 10.2% | Conclusion (HIV-1 [2]): CONFIRMED ACTIVE | conclusion / reported as anti-HIV drug (HIV-1 [2]): moderate | TI50(IC/EC) (HIV-1 [2]; ratio IC50/EC50, Tables 2-3): 2.10 × 10^+1 | viability at 200 µM ([3]; uninfected cem cells, dose 2.00 × 10^-4 Molar (Table 3), read-out: UNINFECTED RESPONSE Percent of Control): 137% | viability at 630 µM ([3]; uninfected cem cells, dose 6.30 × 10^-4 Molar (Table 3), read-out: UNINFECTED RESPONSE Percent of Control): 125% | viability at 63 µM ([3]; uninfected cem cells, dose 6.30 × 10^-5 Molar (Table 3), read-out: UNINFECTED RESPONSE Percent of Control): 130% | CC50 [3]: 2800 µM | CC50 at 144 h [3]: 2800 µM
